Measurements as given in ChEMBL document CHEMBL1201862, “PubChem BioAssay data set” (2004).
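How tested: cells in 96-well plates exposed to compound for 48 hours at five concentrations. GI50 is the concentration that inhibits growth by half.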 Active and inactive are the calls of the source. No stated cut-off is given here; in the data, active = GI50 up to about 1.1 µM and inactive = higher.

Key:
Assay in all cases: growth of human tumour cells (NCI), 48 h
SW-620 = tested on: SW-620
CCRF-CEM = tested on: CCRF-CEM
LOX IMVI = tested on: LOX IMVI
DU-145 = tested on: DU-145
NCI-H23 = tested on: NCI-H23
CAKI-1 = tested on: CAKI-1
BT-549 = tested on: BT-549
T47D = tested on: T47D
SR = tested on: SR
NCI-H522 = tested on: NCI-H522
OVCAR-5 = tested on: OVCAR-5
HCT-116 = tested on: HCT-116
OVCAR-4 = tested on: OVCAR-4
U-251 = tested on: U-251
ACHN = tested on: ACHN
A549 = tested on: A549
MOLT-4 = tested on: MOLT-4
UACC-257 = tested on: UACC-257
HCC 2998 = tested on: HCC 2998

## CN1CCN(CCCCNc2cc3c4ccccc4c(NCCCCN4CCN(C)CC4)cc3c3ccccc23)CC1
SW-620
  GI50: 1.43 µM (inactive)
CCRF-CEM
  GI50: 0.703 µM (active)
LOX IMVI
  GI50: 0.962 µM (active)
DU-145
  GI50: 1.67 µM (inactive)
NCI-H23
  GI50: 2.09 µM (inactive)
CAKI-1
  GI50: 9.77 µM (inactive)
BT-549
  GI50: 5.89 µM (inactive)
T47D
  GI50: 18.6 µM (inactive)
SR
  GI50: 0.443 µM (active)
NCI-H522
  GI50: 1.93 µM (inactive)
OVCAR-5
  GI50: 5.56 µM (inactive)
HCT-116
  GI50: 0.604 µM (active)
OVCAR-4
  GI50: 1.36 µM (inactive)
U-251
  GI50: 1.68 µM (inactive)
ACHN
  GI50: 4.06 µM (inactive)
A549
  GI50: 1.37 µM (inactive)
MOLT-4
  GI50: 0.41 µM (active)
UACC-257
  GI50: 4.79 µM (inactive)
HCC 2998
  GI50: 1.81 µM (inactive)

## Oc1ccc(Nc2nc(Cl)c3nc[nH]c3n2)cc1
SW-620
  GI50: > 100 µM (inactive)
CCRF-CEM
  GI50: 37.9 µM (inactive)
LOX IMVI
  GI50: 63.5 µM (inactive)
DU-145
  GI50: > 100 µM (inactive)
NCI-H23
  GI50: > 100 µM (inactive)
CAKI-1
  GI50: 61.9 µM (inactive)
BT-549
  GI50: > 100 µM (inactive)
T47D
  GI50: 61.9 µM (inactive)
SR
  GI50: 28.1 µM (inactive)
NCI-H522
  GI50: > 100 µM (inactive)
OVCAR-5
  GI50: > 100 µM (inactive)
HCT-116
  GI50: > 100 µM (inactive)
OVCAR-4
  GI50: > 100 µM (inactive)
U-251
  GI50: > 100 µM (inactive)
ACHN
  GI50: 93.1 µM (inactive)
A549
  GI50: > 100 µM (inactive)
MOLT-4
  GI50: > 100 µM (inactive)
UACC-257
  GI50: > 100 µM (inactive)
HCC 2998
  GI50: > 100 µM (inactive)

## CC(C)OC(=O)c1ccc(NCC2=CC(=O)C=CC2=O)cc1
SW-620
  GI50: 11.7 µM (inactive)
CCRF-CEM
  GI50: 2.21 µM (inactive)
LOX IMVI
  GI50: 12.8 µM (inactive)
DU-145
  GI50: 16.6 µM (inactive)
NCI-H23
  GI50: 13.6 µM (inactive)
CAKI-1
  GI50: 3.43 µM (inactive)
BT-549
  GI50: 12.9 µM (inactive)
T47D
  GI50: 2.25 µM (inactive)
SR
  GI50: 2.39 µM (inactive)
NCI-H522
  GI50: 1.69 µM (inactive)
OVCAR-5
  GI50: 19.4 µM (inactive)
HCT-116
  GI50: 14.4 µM (inactive)
OVCAR-4
  GI50: 12.8 µM (inactive)
U-251
  GI50: 16 µM (inactive)
ACHN
  GI50: 12 µM (inactive)
A549
  GI50: 44.3 µM (inactive)
MOLT-4
  GI50: 2.39 µM (inactive)
UACC-257
  GI50: 14.1 µM (inactive)
HCC 2998
  GI50: 21.4 µM (inactive)

## COc1ccc(-c2nc(-c3cnccn3)n(C/C=C/c3ccccc3)n2)cc1
SW-620
  GI50: > 100 µM (inactive)
CCRF-CEM
  GI50: > 100 µM (inactive)
LOX IMVI
  GI50: > 100 µM (inactive)
DU-145
  GI50: > 100 µM (inactive)
NCI-H23
  GI50: > 100 µM (inactive)
BT-549
  GI50: 40.7 µM (inactive)
T47D
  GI50: 48.2 µM (inactive)
SR
  GI50: > 100 µM (inactive)
NCI-H522
  GI50: 32.8 µM (inactive)
OVCAR-5
  GI50: > 100 µM (inactive)
HCT-116
  GI50: 92.3 µM (inactive)
OVCAR-4
  GI50: 21.3 µM (inactive)
U-251
  GI50: 46.7 µM (inactive)
A549
  GI50: 51.6 µM (inactive)
MOLT-4
  GI50: > 100 µM (inactive)
UACC-257
  GI50: > 100 µM (inactive)
HCC 2998
  GI50: > 100 µM (inactive)

## CCCC(=O)N(C(=O)CCC)C1=C(Cl)C(=O)c2ccccc2C1=O
SW-620
  GI50: 2.87 µM (inactive)
CCRF-CEM
  GI50: 2.09 µM (inactive)
LOX IMVI
  GI50: 3.66 µM (inactive)
DU-145
  GI50: 14 µM (inactive)
NCI-H23
  GI50: 2.65 µM (inactive)
CAKI-1
  GI50: 2.24 µM (inactive)
BT-549
  GI50: 3.41 µM (inactive)
T47D
  GI50: 2.33 µM (inactive)
SR
  GI50: 3.02 µM (inactive)
NCI-H522
  GI50: 0.611 µM (active)
OVCAR-5
  GI50: 7.67 µM (inactive)
HCT-116
  GI50: 2.72 µM (inactive)
OVCAR-4
  GI50: 5.52 µM (inactive)
U-251
  GI50: 4.08 µM (inactive)
ACHN
  GI50: 1.28 µM (inactive)
A549
  GI50: 6.73 µM (inactive)
MOLT-4
  GI50: 3.25 µM (inactive)
UACC-257
  GI50: 3.42 µM (inactive)
HCC 2998
  GI50: 4.04 µM (inactive)

## Cc1ccc(/C=N/Nc2cc(C)c3ccccc3n2)s1
SW-620
  GI50: 21.7 µM (inactive)
CCRF-CEM
  GI50: 13.1 µM (inactive)
LOX IMVI
  GI50: 10.3 µM (inactive)
DU-145
  GI50: > 10 µM (inactive)
NCI-H23
  GI50: 17.5 µM (inactive)
CAKI-1
  GI50: 11.4 µM (inactive)
BT-549
  GI50: 21.3 µM (inactive)
T47D
  GI50: 5.48 µM (inactive)
SR
  GI50: 6.38 µM (inactive)
NCI-H522
  GI50: 4.06 µM (inactive)
OVCAR-5
  GI50: 15.6 µM (inactive)
HCT-116
  GI50: 3.85 µM (inactive)
OVCAR-4
  GI50: 20 µM (inactive)
U-251
  GI50: 16.8 µM (inactive)
ACHN
  GI50: 20.1 µM (inactive)
A549
  GI50: 16.5 µM (inactive)
MOLT-4
  GI50: 1.42 µM (inactive)
UACC-257
  GI50: 7.53 µM (inactive)
HCC 2998
  GI50: 15.3 µM (inactive)

## CC(=O)O[C@H]1CC[C@@]2(C)C(=CC[C@H]3[C@@H]4C[C@H](N5CCOCC5)[C@H](OC(C)=O)[C@@]4(C)CC[C@@H]32)C1
SW-620
  GI50: > 100 µM (inactive)
CCRF-CEM
  GI50: > 100 µM (inactive)
LOX IMVI
  GI50: > 100 µM (inactive)
DU-145
  GI50: > 100 µM (inactive)
NCI-H23
  GI50: > 100 µM (inactive)
CAKI-1
  GI50: > 100 µM (inactive)
BT-549
  GI50: > 100 µM (inactive)
T47D
  GI50: > 100 µM (inactive)
SR
  GI50: 86.5 µM (inactive)
NCI-H522
  GI50: > 100 µM (inactive)
OVCAR-5
  GI50: > 100 µM (inactive)
HCT-116
  GI50: > 100 µM (inactive)
OVCAR-4
  GI50: > 100 µM (inactive)
U-251
  GI50: > 100 µM (inactive)
ACHN
  GI50: > 100 µM (inactive)
A549
  GI50: > 100 µM (inactive)
MOLT-4
  GI50: > 100 µM (inactive)
UACC-257
  GI50: > 100 µM (inactive)
HCC 2998
  GI50: > 100 µM (inactive)

## O=c1[nH]/c(=C/c2ccc(OCc3ccccc3)cn2)c(=O)[nH]/c1=C/c1ccc(F)cc1
SW-620
  GI50: 0.416 µM (active)
CCRF-CEM
  GI50: 0.458 µM (active)
LOX IMVI
  GI50: 1.62 µM (inactive)
DU-145
  GI50: 0.931 µM (active)
NCI-H23
  GI50: 2.89 µM (inactive)
BT-549
  GI50: 4.97 µM (inactive)
T47D
  GI50: 1.42 µM (inactive)
SR
  GI50: 0.0815 µM (active)
NCI-H522
  GI50: 0.41 µM (active)
OVCAR-5
  GI50: > 33.3 µM (inactive)
HCT-116
  GI50: 0.461 µM (active)
U-251
  GI50: 1.05 µM (active)
ACHN
  GI50: 1.72 µM (inactive)
A549
  GI50: 1.8 µM (inactive)
MOLT-4
  GI50: 0.4 µM (active)
UACC-257
  GI50: 0.512 µM (active)
HCC 2998
  GI50: 1.42 µM (inactive)

## O=C(CCCCCC(=O)N1CC(CCl)c2ccc([N+](=O)[O-])cc21)N1CC(CCl)c2ccc([N+](=O)[O-])cc21 (stereo not drawn)
SW-620
  GI50: > 100 µM (inactive)
CCRF-CEM
  GI50: 91.4 µM (inactive)
LOX IMVI
  GI50: > 100 µM (inactive)
DU-145
  GI50: > 100 µM (inactive)
NCI-H23
  GI50: > 100 µM (inactive)
CAKI-1
  GI50: > 100 µM (inactive)
BT-549
  GI50: > 100 µM (inactive)
T47D
  GI50: > 100 µM (inactive)
SR
  GI50: 9.31 µM (inactive)
NCI-H522
  GI50: > 100 µM (inactive)
OVCAR-5
  GI50: > 100 µM (inactive)
HCT-116
  GI50: > 100 µM (inactive)
OVCAR-4
  GI50: > 100 µM (inactive)
U-251
  GI50: > 100 µM (inactive)
ACHN
  GI50: > 100 µM (inactive)
MOLT-4
  GI50: > 100 µM (inactive)
UACC-257
  GI50: > 100 µM (inactive)
HCC 2998
  GI50: 23.7 µM (inactive)

## O=C(O)[C@H]1NC[C@@H]2ON=C(Br)[C@@H]21
SW-620
  GI50: > 100 µM (inactive)
CCRF-CEM
  GI50: > 100 µM (inactive)
LOX IMVI
  GI50: > 100 µM (inactive)
DU-145
  GI50: > 100 µM (inactive)
NCI-H23
  GI50: > 100 µM (inactive)
CAKI-1
  GI50: > 100 µM (inactive)
BT-549
  GI50: > 100 µM (inactive)
T47D
  GI50: > 100 µM (inactive)
SR
  GI50: > 100 µM (inactive)
NCI-H522
  GI50: > 100 µM (inactive)
OVCAR-5
  GI50: > 100 µM (inactive)
HCT-116
  GI50: > 100 µM (inactive)
OVCAR-4
  GI50: > 100 µM (inactive)
U-251
  GI50: > 100 µM (inactive)
ACHN
  GI50: > 100 µM (inactive)
A549
  GI50: > 100 µM (inactive)
MOLT-4
  GI50: > 100 µM (inactive)
UACC-257
  GI50: > 100 µM (inactive)
HCC 2998
  GI50: > 100 µM (inactive)

## CSC[C@H](NC(=O)COc1cccc2cnccc12)C(=O)NC(Cc1ccccc1)C(O)C(=O)N1CSC[C@H]1C(=O)NC(C)(C)C (stereo partly drawn)
SW-620
  GI50: > 100 µM (inactive)
CCRF-CEM
  GI50: 26.5 µM (inactive)
LOX IMVI
  GI50: 31.8 µM (inactive)
DU-145
  GI50: 42.8 µM (inactive)
NCI-H23
  GI50: 82.4 µM (inactive)
BT-549
  GI50: > 100 µM (inactive)
T47D
  GI50: 36.6 µM (inactive)
SR
  GI50: 36.8 µM (inactive)
NCI-H522
  GI50: > 100 µM (inactive)
OVCAR-5
  GI50: > 100 µM (inactive)
HCT-116
  GI50: 23 µM (inactive)
OVCAR-4
  GI50: 57.5 µM (inactive)
U-251
  GI50: 95.3 µM (inactive)
ACHN
  GI50: 24.4 µM (inactive)
A549
  GI50: 32.4 µM (inactive)
MOLT-4
  GI50: 17.7 µM (inactive)
UACC-257
  GI50: 29.2 µM (inactive)
HCC 2998
  GI50: > 100 µM (inactive)
